{"source": "patent US20220259254A1", "about": "“TRANS-CYCLOOCTENE BIOORTHOGONAL AGENTS AND USES IN CANCER AND IMMUNOTHERAPY” (Tambo, Inc., priority 2019, published 2022)", "key": {"bacteria": {"test_system": "bacteria", "assay": "activity against bacteria measured by microcalorimetry", "assay_type": "cell-based", "details": "tested up to 64 μg/ml (32 μM)", "text": "Example A7C can be synthesized using a protocol analogous to Example A7B."}, "MC38 tumor [1]": {"test_system": "MC38 tumor", "assay": "MC38 dual tumor model (injected and non-injected tumor), tumor growth inhibition and survival;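 for all read-outs here: male C57BL/6 mice carrying two subcutaneous MC38 flank tumors, with treatment given peritumorally beside the larger tumor only and both tumors sized by caliper three times per week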", "details": "for response of non-injected tumors: non-injected tumor (FIG. 6C); for antitumor activity on non-injected tumor compared with G4: P<0.001; for 1-T/C (%) / T/C (%): vs G4 saline; for TV, tumor volume at Day 7: Day 7 = treatment start, all groups peritumoral BIOMATERIAL 1; for survival, statistical difference from Saline: log-rank (Mantel-Cox) test; for tumor growth curves, statistical difference from Saline: unpaired t test with Welch's correction for each day, groups 4, 5, 8", "quoted_text": "For groups 4-10 (dual tumor model), Immunocompetent male C57BL/6 mice were inoculated SC in the right flank with 5×10^5 MC38 tumor cells (large injected tumor) and in the left flank with 1×10^5 MC38 tumor cells (small non-injected tumor).\nPrior to injection, the MC38 cells were suspended in 0.1 mL DMEM media mixed with 50% Matrigel for tumor development. When the average tumor volume of the large tumor reached approximately 100 mm^3, animals were randomly grouped according to body weight and tumor volume into 10 treatment groups with 5-10 mice per group. All groups received peritumoral biomaterial injections (100 μL/mouse) near the large tumor (hereafter, the injected tumor). One hour later, groups 1, 4 and 10 were IV administered saline control (QD×5 days); groups 2, 8 and 9 were IV administered PRODRUG 1 prodrug (28.6 mg/kg Dox Eq QD×5 days; cumulative dose of 143 mg/kg Dox Eq) and group 5 was IV administered Dox HCl control (MTD; 8.1 mg/kg Q4D×3 doses; cumulative dose of 24.3 mg/kg). Tumor volumes for both tumors were measured three times weekly in two dimensions using a caliper, and the volume expressed in mm^3. 8 groups were used to assess the tumor growth inhibition, while groups 9 and 10 (PRODRUG 1, saline n=10/group) were used to determine the immune cell infiltration using flow cytometry. Groups 3, 6 and 7 (n=10) were used to test Dox+ TLR9 agonist (SL-01) and PRODRUG 1+ TLR9 agonist. The TLR9 agonist was given as an intratumoral injection in the primary tumors alone after the last PRODRUG 1 or Dox dose at 25 μg per mouse.\nEighty-five animals were enrolled into the efficacy study. When tumor volume reached an average volume of approximately 100 mm^3, animals were randomized as below using block randomization by Excel based upon their tumor size. […] 5×10^5 MC-38 cells suspended in 100 μL PBS mixed with 50% matrix gel were inoculated subcutaneously into the right flank. For Groups 4 through 10, 1×10^5MC-38 cells suspended in 100 μL PBS mixed with 50% matrix gel were inoculated subcutaneously into the left flank.\nTumor volume was measured thrice weekly in two dimensions using a caliper, and the volume was expressed in mm^3 using the formula: V=0.5 a×b^2, where a and b are the long and short diameters of the tumor, respectively. The tumor volume was then used for calculations of both T-C and T/C values. T-C was calculated with T as the median time (in days) required for the treatment group tumors to reach a predetermined size, and C as the median time (in days) for the control group tumors to reach the same size."}, "MC38 tumor cells": {"test_system": "MC38 tumor cells", "assay": "MC38 tumor re-challenge study", "assay_type": "in vivo, C57BL/6 mice", "details": "5×10^5 MC38 cells SC at left flank on Day 70; versus naïve mice; listed as BIOMATERIAL 1/PRODRUG 1", "protocol": "Aside from the dual-tumor groups, this study also investigated a tumor re-implantation in mice inoculated with only one MC38 tumor. On Day 38, all animals in group G2 (Table 1)(n=8) were treated with a second cycle of BIOMATERIAL 1/PRODRUG 1-100-μL intratumoral BIOMATERIAL 1 injection followed by 5 daily doses (1 dose per day) of PRODRUG 1—this time at 11.9 mg/kg/dose Dox Eq (59.3 mg/kg/cycle Dox Eq).\nIn addition, mice from group G3 (Table 1) (n=5), and mice from dual tumor groups G6, G7, and G8 (n=10) were rechallenged."}, "[2]": {"test_system": "tumor-infiltrating lymphocytes (TILs)", "assay": "flow cytometry of tumor-infiltrating immune cells in dual MC38 tumors", "assay_type": "in vivo, C57BL/6 mice", "details": "for % CD45+CD3+ cells versus saline: 2 weeks after treatment completion", "protocol": "In the same study, 2 groups (n=10) of mice with dual MC38 tumors were used for tumor immune cell profiling and were treated with either BIOMATERIAL 1/PRODRUG 1 TREATMENT or saline. Each group was further divided into 2 subgroups of 5 mice each. Tumor collection was performed on the first and second subgroups at 1 and 2 weeks, respectively. […] The cell percentage of each population of interest was identified (Table 6).\nFor tumor samples, tumor tissues were homogenized using the Miltenyi Tumor Dissociation kit. Single cell suspension from tumor samples were RBC lysed, centrifuged to pellet cells, washed with cold PBS and resuspend cell pellets in the staining buffer and store on ice. Cells were then ready for FACS antibody staining.\n1. For each sample, added cells (<10×10^6 cells/tube) in the staining buffer, into an Eppendorf tube labeled with correct sample name. • Panel 1: Live-dead/CD45/CD3/CD4/CD8/CD25/PD-1 • Panel 2: Live-dead/CD45/CD3/CD4/CD25/Foxp3\n2. For each tissue type (tumor), prepared two extra tubes (see below) and added cells (<10×10^6 cells/tube) in the staining buffer into these two tubes. • Tube: no-color • Tube: live-dead only*** • Tube: no-color (fix/perm) • Tube: live-dead only (fix/perm) • Note: These two tubes served as gating control for each tissue type. • *** The live-dead only tube was also used for live-dead compensation. Compensation for 8 fluorochrome-conjugated antibodies was prepared separately, using compensation beads from BD and following vendor's manual.\n3. Prepared FcR blocking solution (100 μL per tube×tube numbers) by diluting FcR blocking antibody at 1/100 in staining buffer • Note: Since two Brilliant Violet dyes were used in the FACS panel, BD Horizon Brilliant Stain Buffer were added at 5 μL per 100 μL FcR blocking solution\n4. Resuspended cell pellets in 100 μL FcR blocking solution and incubated at RT in dark for 3 min\n5. For panel 1, added FACS antibodies to desired concentrations (2 μg/ml for each antibody). Incubated at 4° C. in dark for 30 min. For panel 2, added FACS antibodies (except foxp3) to desired concentrations (2 μg/ml for each antibody), incubated at 4° C. in dark for 30 min, then fixated/permeabilized the cells at 4° C. for 40-50 min, and added foxp3 antibody to desired concentrations (2 μg/ml) at 4° C. in dark for 40 min.\n6. Added 1 ml staining buffer, centrifuged at 350 g for 4 min at 4° C. to wash and pellet cells\n7. Resuspended cells in “Tube: no color” with 500 μL staining buffer (no live-dead added)\n8. Resuspended cells in all other tubes with 500 μL staining buffer with 1 μg/ml live-dead\n9. Cells were ready for FACS analysis and were subjected to analysis by the Attune Nxt Flow Cytomter (ThermoFisher)\nFor Group 9 and Group 10, 5 and 5 mice were sacrificed at 1 and 2 weeks respectively after dosing completion. Tumors were collected for FACS."}, "MC38 tumor [3]": {"test_system": "MC38 tumor", "assay": "MC38 subcutaneous syngeneic single tumor model, tumor growth inhibition", "assay_type": "in vivo, C57BL/6 mice"}, "[4]": {"details": "dual tumor mice, injected tumor"}, "[5]": {"details": "dual tumor mice, non-injected tumor"}, "[6]": {"details": "injected tumor, dual tumor mice, D21"}, "[7]": {"details": "injected tumor, dual tumor mice"}, "[8]": {"details": "non-injected tumor, dual tumor mice, D24"}, "[9]": {"details": "non-injected tumor, dual tumor mice"}, "[10]": {"details": "injected tumor, single tumor mice, D21, vs G1 saline"}}, "note": "Entries after “also recorded” stand apart in the source; their conditions may differ."}
{"smiles": "CC(C)CC(C(=O)N[C@H]1C(=O)N[C@@H](CC(N)=O)C(=O)N[C@H]2C(=O)N[C@H]3C(=O)N[C@H](C(=O)N[C@H](C(=O)O)c4cc(O)cc(O)c4-c4cc3ccc4O)[C@H](O)c3ccc(c(Cl)c3)Oc3cc2cc(c3O[C@@H]2O[C@H](CO)[C@@H](O)[C@H](O)[C@H]2O[C@H]2C[C@](C)(NC(=O)O[C@@H]3/C=C/CC[C@](C)(C(=O)NCC(=O)O)CC3)[C@H](O)[C@H](C)O2)Oc2ccc(cc2Cl)[C@H]1O)N(C)C(=O)O[C@@H]1/C=C/CC[C@](C)(C(=O)NCC(=O)O)CC1", "note": "(stereo partly shown) [Vanco-Bis-TCO-Glycine]", "values": [{"measurement": "activity against bacteria", "setting": "bacteria", "value": "no activity"}]}
{"smiles": "COc1cccc2c1C(=O)c1c(O)c3c(c(O)c1C2=O)C[C@@](O)(C(=O)CO)C[C@@H]3O[C@H]1CC(NC(=O)O[C@@H]2/C=C/CC[C@](C)(C(=O)NCC(=O)O)CC2)[C@H](O)C(C)O1", "note": "(stereo partly shown) [PRODRUG 1]", "values": [{"measurement": "antitumor activity on injected tumor compared with control group G4", "setting": "MC38 tumor [1]; [4]", "value": "significant antitumor activity"}, {"measurement": "antitumor response / tumor growth inhibition compared with conventional Dox treatment", "setting": "MC38 tumor [1]; dual tumor mice, injected tumor, p<0.05, listed as BIOMATERIAL 1/PRODRUG 1", "value": "significantly improved antitumor response; also recorded: improved tumor growth inhibition"}, {"measurement": "response of non-injected tumors", "setting": "MC38 tumor [1]; dual tumor mice", "value": "sustained anti-tumor responses"}, {"measurement": "antitumor activity on non-injected tumor compared with G4", "setting": "MC38 tumor [1]; [5]", "value": "significant antitumor activity"}, {"measurement": "overall survival compared with conventional Dox treatment", "setting": "MC38 tumor [1]; dual tumor mice, p<0.001, listed as BIOMATERIAL 1/PRODRUG 1", "value": "significantly improved"}, {"measurement": "1-T/C (%)", "setting": "MC38 tumor [1]; [6]", "value": 75, "unit": "%"}, {"measurement": "T/C (%)", "setting": "MC38 tumor [1]; [6]", "value": 25, "unit": "%"}, {"measurement": "TV, tumor volume at Day 7", "setting": "MC38 tumor [1]; [7]", "value": "93 ± 5.6", "unit": "mm^3"}, {"measurement": "TV, tumor volume at Day 21", "setting": "MC38 tumor [1]; [7]", "value": "322 ± 45.9", "unit": "mm^3"}, {"measurement": "survival, statistical difference from Saline", "setting": "MC38 tumor [1]; dual tumor mice", "value": "significantly different"}, {"measurement": "1-T/C (%)", "setting": "MC38 tumor [1]; [8]", "value": 70, "unit": "%"}, {"measurement": "T/C (%)", "setting": "MC38 tumor [1]; [8]", "value": 30, "unit": "%"}, {"measurement": "TV, tumor volume at Day 12", "setting": "MC38 tumor [1]; [9]", "value": "42 ± 3.8", "unit": "mm^3"}, {"measurement": "TV, tumor volume at Day 24", "setting": "MC38 tumor [1]; [9]", "value": "53 ± 5.2", "unit": "mm^3"}, {"measurement": "tumor growth curves, statistical difference from Saline", "setting": "MC38 tumor [1]", "value": "significantly different"}, {"measurement": "tumor growth after re-challenge with MC38 cells", "setting": "MC38 tumor cells", "value": "suppressed; also recorded: sustained anti-tumor response"}, {"measurement": "immune cell profile versus saline group", "setting": "[2]; 1 week after completion of treatment", "value": "no differences"}, {"measurement": "total number of TILs", "setting": "[2]; injected and non-injected tumors, at 2 weeks, not after 1 week, listed as BIOMATERIAL 1/PRODRUG 1", "value": "increased the total number of TILs"}, {"measurement": "PD-1 expression in CD8+ cells versus saline", "setting": "[2]; injected or non-injected tumors", "value": "no difference"}, {"measurement": "percentage of CD4+ cells versus saline", "setting": "[2]; injected tumor, 2 weeks", "value": "significantly higher"}, {"measurement": "percentage of CD8+ cells versus saline", "setting": "[2]; injected tumor, 2 weeks", "value": "significantly higher"}, {"measurement": "percentage of PD-1+CD4+ T cells versus saline", "setting": "[2]; injected tumors, 2 weeks", "value": "higher percentage"}, {"measurement": "% CD45+CD3+ cells versus saline", "setting": "[2]; injected tumors", "value": "increased"}, {"measurement": "percentage of FoxP3+ cells versus saline", "setting": "[2]; injected tumors, 2 weeks, no statistical significance", "value": "lower"}, {"measurement": "CD4+ cell percentage versus saline", "setting": "[2]; non-injected tumor, 2 weeks", "value": "significantly higher"}, {"measurement": "CD4+CD25+ FoxP3+ cells (Tregs)", "setting": "[2]; non-injected tumors, 2 weeks", "value": "no CD4+CD25+ FoxP3+ cells observed"}, {"measurement": "difference in PD-1+CD4+ T cells versus saline", "setting": "[2]; non-injected tumors, 2 weeks", "value": "not observed"}, {"measurement": "% CD45+CD3+ cells versus saline", "setting": "[2]; non-injected tumors", "value": "increased"}, {"measurement": "cell percentage of CD8+ cells versus saline", "setting": "[2]; non-injected tumors, 2 weeks, no statistical significance", "value": "appeared higher"}, {"measurement": "complete remission", "setting": "MC38 tumor [3]; MC38 model", "value": "10 % of mice treated"}, {"measurement": "1-T/C (%)", "setting": "MC38 tumor [3]; [10]", "value": 62, "unit": "%"}, {"measurement": "T/C (%)", "setting": "MC38 tumor [3]; [10]", "value": 38, "unit": "%"}, {"measurement": "TV, tumor volume at Day 7", "setting": "MC38 tumor [3]; injected tumor, single tumor mice, Day 7 = treatment start, all groups peritumoral BIOMATERIAL 1", "value": "94 ± 6.3", "unit": "mm^3"}, {"measurement": "TV, tumor volume at Day 21", "setting": "MC38 tumor [3]; injected tumor, single tumor mice, Day 21, all groups peritumoral BIOMATERIAL 1", "value": "393 ± 100.5", "unit": "mm^3"}, {"measurement": "antitumor activity compared with control group G1", "setting": "MC38 tumor [3]; single tumor mice, P<0.001", "value": "significant antitumor activity"}]}
{"smiles": "COc1cccc2c1C(=O)c1c(O)c3c(c(O)c1C2=O)C[C@@](O)(C(=O)CO)C[C@@H]3O[C@H]1C[C@H](N)[C@H](O)[C@H](C)O1", "note": "[Dox, doxorubicin, reference compound]", "values": [{"measurement": "antitumor activity on injected tumor compared with control group G4", "setting": "MC38 tumor [1]; [4]", "value": "significant antitumor activity"}, {"measurement": "response of non-injected tumors", "setting": "MC38 tumor [1]; dual tumor mice", "value": "progressive growth"}, {"measurement": "antitumor activity on non-injected tumor compared with G4", "setting": "MC38 tumor [1]; [5]", "value": "significant antitumor activity"}, {"measurement": "1-T/C (%)", "setting": "MC38 tumor [1]; [6]", "value": 34, "unit": "%"}, {"measurement": "T/C (%)", "setting": "MC38 tumor [1]; [6]", "value": 66, "unit": "%"}, {"measurement": "TV, tumor volume at Day 7", "setting": "MC38 tumor [1]; [7]", "value": "93 ± 8.5", "unit": "mm^3"}, {"measurement": "TV, tumor volume at Day 21", "setting": "MC38 tumor [1]; [7]", "value": "810 ± 196.4", "unit": "mm^3"}, {"measurement": "survival, statistical difference from Saline", "setting": "MC38 tumor [1]; dual tumor mice", "value": "not significantly different"}, {"measurement": "1-T/C (%)", "setting": "MC38 tumor [1]; [8]", "value": 66, "unit": "%"}, {"measurement": "T/C (%)", "setting": "MC38 tumor [1]; [8]", "value": 34, "unit": "%"}, {"measurement": "TV, tumor volume at Day 12", "setting": "MC38 tumor [1]; [9]", "value": "67 ± 18.8", "unit": "mm^3"}, {"measurement": "TV, tumor volume at Day 24", "setting": "MC38 tumor [1]; [9]", "value": "93 ± 19.2", "unit": "mm^3"}, {"measurement": "tumor growth curves, statistical difference from Saline", "setting": "MC38 tumor [1]", "value": "not significantly different"}]}
